Assay results published in patent US9023821B2, “Use of MicroRNA for treating diseases associated with a dysfunction of the cilia in multiciliated epithelial cells” (Centre National de la Recherche Scientifique, priority 2009, dated 2015).

How the values were obtained:
[1] = system: human airway epithelial cells (HAECs); test: Agilent miRNA chips, miRNA expression at four stages of differentiation of HAECs; conditions: for Modulation (ratio of the level of intensity of expression in log2 in two stages of differentiation) measured with the Agilent chips, D7 − D0 / Modulation (ratio of the level of intensity of expression in log2 in two stages of differentiation) measured with the Agilent chips, FC − D7 / Modulation (ratio of the level of intensity of expression in log2 in two stages of differentiation) measured with the Agilent chips, WD − D0 / Modulation (ratio of the level of intensity of expression in log2 in two stages of differentiation) measured with the Agilent chips, WD − FC / Level of intensity of expression in log2 measured with the Agilent chips, D0 / Level of intensity of expression in log2 measured with the Agilent chips, D7 / Level of intensity of expression in log2 measured with the Agilent chips, FC / Level of intensity of expression in log2 measured with the Agilent chips, WD: Table VI; for Modulation (ratio of the level of intensity of expression in log2 at two stages of differentiation), FC − D7 / Modulation (ratio of the level of intensity of expression in log2 at two stages of differentiation), WD − FC: Agilent miRNA chips, Table V; for Level of intensity of expression in log2 measured with the Agilent chips, D0: stage D0; for Level of intensity of expression in log2 measured with the Agilent chips, D7: stage D7; for Level of intensity of expression in log2 measured with the Agilent chips, FC: stage FC; for Level of intensity of expression in log2 measured with the Agilent chips, WD: stage WD
Method in brief: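 Arrays probing 866 human and 89 human viral miRNAs were used in parallel with sequencing. The same patients' RNA was labelled and hybridized following the manufacturer's protocol.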

[2] = system: basal cells and pyramidal cells of the airway epithelium; test: miRNA expression in sorted basal cells versus pyramidal cells (ciliated + secretory), HTS and Agilent chips; design: species or system human; conditions: for Modulation of expression of the miRNAs in pyramidal cells (323(−)) relative to basal cells 323(+): HTS and Agilent chips; for Intensity of the level of expression in log2 in pyramidal cells (323(−)): pyramidal cells (ciliated + secretory)
Method in brief: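 FACS on CD151 and tissue factor: double-positive = basal, double-negative = ciliated + mucus cells; DAPI, doublets, aggregates excluded; sort at 5000 events/s. Purity checked by cytometry/immunocytochemistry. miRNA by Agilent array or HTS on total RNA. Source: nasal polyps/conchae, 3 donors.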

[3] = system: human airway epithelial cells (HAECs); test: High-throughput sequencing (HTS) of miRNAs at four stages of differentiation of HAECs; conditions: for Modulation (ratio of the level of intensity of expression in log2 in two stages of differentiation) measured by high-throughput sequencing, D7 − D0 / Modulation (ratio of the level of intensity of expression in log2 in two stages of differentiation) measured by high-throughput sequencing, FC − D7 / Modulation (ratio of the level of intensity of expression in log2 in two stages of differentiation) measured by high-throughput sequencing, WD − D0 / Modulation (ratio of the level of intensity of expression in log2 in two stages of differentiation) measured by high-throughput sequencing, WD − FC / Level of intensity of expression in log2 measured by high-throughput sequencing, D0 / Level of intensity of expression in log2 measured by high-throughput sequencing, D7 / Level of intensity of expression in log2 measured by high-throughput sequencing, FC / Level of intensity of expression in log2 measured by high-throughput sequencing, WD: Table VI; for Level of intensity of expression in log2 At the differentiated stage (WD) measured in HTS: healthy human airway epithelial tissue; for Level of intensity of expression in log2 measured by high-throughput sequencing, D0: stage D0; for Level of intensity of expression in log2 measured by high-throughput sequencing, D7: stage D7; for Level of intensity of expression in log2 measured by high-throughput sequencing, FC: stage FC; for Level of intensity of expression in log2 At the differentiated stage (WD) measured in HTS / Level of intensity of expression in log2 measured by high-throughput sequencing, WD: stage WD
Method in brief: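 ALI cultures sampled at day 0, day 7, first-cilia stage (~14 d) and full differentiation (~21 d). Trizol lysis, column purification retaining small RNAs. Adaptor ligation, RT at 42° C for 30 min, PCR, gel selection of ~105-150 base products.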

| Substance | Modulation (ratio of the level of intensity of expression in log2 in two stages of differentiation) measured with the Agilent chips, D7 − D0 [1] | Modulation (ratio of the level of intensity of expression in log2 at two stages of differentiation), FC − D7 [1] | Modulation (ratio of the level of intensity of expression in log2 in two stages of differentiation) measured with the Agilent chips, FC − D7 [1] | Modulation (ratio of the level of intensity of expression in log2 in two stages of differentiation) measured with the Agilent chips, WD − D0 [1] | Modulation (ratio of the level of intensity of expression in log2 at two stages of differentiation), WD − FC [1] | Modulation (ratio of the level of intensity of expression in log2 in two stages of differentiation) measured with the Agilent chips, WD − FC [1] | Level of intensity of expression in log2 measured with the Agilent chips, D0 [1] | Level of intensity of expression in log2 measured with the Agilent chips, D7 [1] | Level of intensity of expression in log2 measured with the Agilent chips, FC [1] | Level of intensity of expression in log2 measured with the Agilent chips, WD [1] | Modulation of expression of the miRNAs in pyramidal cells (323(−)) relative to basal cells 323(+) [2] | Intensity of the level of expression in log2 in basal cells (323(+)) [2] | Intensity of the level of expression in log2 in pyramidal cells (323(−)) [2] | Modulation (ratio of the level of intensity of expression in log2 in two stages of differentiation) measured by high-throughput sequencing, D7 − D0 [3] | Modulation (ratio of the level of intensity of expression in log2 in two stages of differentiation) measured by high-throughput sequencing, FC − D7 [3] | Modulation (ratio of the level of intensity of expression in log2 in two stages of differentiation) measured by high-throughput sequencing, WD − D0 [3] | Modulation (ratio of the level of intensity of expression in log2 in two stages of differentiation) measured by high-throughput sequencing, WD − FC [3] | Level of intensity of expression in log2 At the differentiated stage (WD) measured in HTS [3] | Level of intensity of expression in log2 measured by high-throughput sequencing, D0 [3] | Level of intensity of expression in log2 measured by high-throughput sequencing, D7 [3] | other results |
| --- | --- | --- | --- | --- | --- | --- | --- | --- | --- | --- | --- | --- | --- | --- | --- | --- | --- | --- | --- | --- | --- |
| hsa-miR-23b: human miRNA, SEQ ID No. 26 (AUCACAUUGCCAGGGAUUACC; expressed or natural sequence; listed as Homo sapiens) | 1.96 log2 | −0.27 log2 | −0.27 log2 | 1.72 log2 | 0.04 log2 | 0.04 log2 | 8.92 log2 | 10.88 log2 | 10.61 log2 | 10.64 log2 | −2.23 | 9.41 log2 | 7.18 log2 | 1.30 log2 | −0.17 log2 | 1.29 log2 | 0.16 log2 | 9.35 log2 | 14.06 log2 | 15.35 log2 | Modulation (ratio of the level of intensity of expression in log2 in two stages of differentiation), D7 − D0 ([3]; HTS): 1.30 log2; Modulation (ratio of the level of intensity of expression in log2 in two stages of differentiation), FC − D7 ([3]; HTS): −0.17 log2; Modulation (ratio of the level of intensity of expression in log2 in two stages of differentiation), WD − FC ([3]; HTS): 0.16 log2; Abundance (%), D0 ([3]; HTS, ALI-D0): 3.73%; Abundance (%), D7 ([3]; HTS, ALI-D7): 9.19%; Abundance (%), FC ([3]; HTS, ALI-FC): 7.92%; Abundance (%), WD ([3]; HTS, ALI-WD): 6.72%; Level of intensity of expression in log2 measured by high-throughput sequencing, FC [3]: 15.18 log2; Level of intensity of expression in log2 measured by high-throughput sequencing, WD [3]: 15.35 log2 |
| hsa-miR-25: human miRNA, SEQ ID No. 27 (CAUUGCACUUGUCUCGGUCUGA; expressed or natural sequence; listed as Homo sapiens) | 1.35 log2 | −0.65 log2 | −0.65 log2 | 0.66 log2 | −0.05 log2 | −0.05 log2 | 7.15 log2 | 8.50 log2 | 7.85 log2 | 7.80 log2 | −0.70 | 5.40 log2 | 4.70 log2 | 0.66 log2 | −0.03 log2 | 0.24 log2 | −0.39 log2 | 3.52 log2 | 9.11 log2 | 9.77 log2 | Level of intensity of expression in log2 measured by high-throughput sequencing, FC [3]: 9.74 log2; Level of intensity of expression in log2 measured by high-throughput sequencing, WD [3]: 9.35 log2 |
| hsa-miR-26a: human miRNA, SEQ ID No. 28 (UUCAAGUAAUCCAGGAUAGGCU; expressed or natural sequence; listed as Homo sapiens) | 2.20 log2 | −0.11 log2 | −0.11 log2 | 2.15 log2 | 0.06 log2 | 0.06 log2 | 8.50 log2 | 10.70 log2 | 10.59 log2 | 10.65 log2 | −2.24 | 9.92 log2 | 7.68 log2 | 1.31 log2 | −0.98 log2 | 3.22 log2 | 2.90 log2 | 7.75 log2 | 0.30 log2 | 1.61 log2 | Level of intensity of expression in log2 measured by high-throughput sequencing, FC [3]: 0.62 log2; Level of intensity of expression in log2 measured by high-throughput sequencing, WD [3]: 3.52 log2 |
| hsa-miR-26b: human miRNA, SEQ ID No. 29 (UUCAAGUAAUUCAGGAUAGGU; expressed or natural sequence; listed as Homo sapiens) | 1.94 log2 | −0.37 log2 | −0.37 log2 | 1.65 log2 | 0.08 log2 | 0.08 log2 | 7.97 log2 | 9.91 log2 | 9.54 log2 | 9.62 log2 | −1.47 | 8.75 log2 | 7.28 log2 | 0.09 log2 | 0.05 log2 | 0.92 log2 | 0.78 log2 | 6.81 log2 | 6.84 log2 | 6.93 log2 | Level of intensity of expression in log2 measured by high-throughput sequencing, FC [3]: 6.97 log2; Level of intensity of expression in log2 measured by high-throughput sequencing, WD [3]: 7.75 log2 |
